In PMC10384408, “Anticancer Tungstenocenes with a Diverse Set of (O,O–), (O,S–) and (O,N–) Chelates—A Detailed Biological Study Using an Improved Evaluation via 3D Spheroid Models” (Pharmaceutics, 2023):

How the values were obtained:
[1] = system: IMR-90 human lung fibroblasts; assay: MTT cytotoxicity assay, IMR-90 fibroblasts; type: cell-based; conditions: exposure time 96 h, mean ± SD
Method: (§1) CH1/PA-1 (ovarian teratocarcinoma), SW480 (colon carcinoma) and A549 (non-small cell lung cancer) cells were maintained as described in the reference. IMR-90 human fetal lung fibroblasts (from the European Collection of Authenticated Cell Cultures, Porton Down, Salisbury, UK) were cultured in Stable Cell^TM DMEM/F12 supplemented with 0.01 mg/mL human recombinant insulin (both purchased from Sigma-Aldrich) and 10% fetal bovine serum (FBS, BioWest, Nuaillé, France). Human colon carcinoma cell lines HCT116 and HT29 (both kindly provided by the Institute of Cancer Research, Department of Medicine I, Medical University of Vienna, Austria) were cultured in McCoy’s 5a medium supplemented with 4 mM L-glutamine (both purchased from Sigma-Aldrich) and 10% FBS. MCF-7 human breast adenocarcinoma cells (kindly provided by M. Ogris, Department of Pharmaceutical Sciences, University of Vienna, Austria) were maintained in DMEM (high glucose) supplemented with 4 mM L-glutamine, 0.1 mg/mL human insulin (all purchased from Sigma-Aldrich) and 10% FBS. All cell lines were grown as monolayers in 75 cm^2 culture flasks (CytoOne, Starlab, Hamburg, Germany) at 37 °C in a humidified atmosphere containing 5% CO2.
(§2) Exponentially growing cells were plated into 96-well microculture plates (CytoOne, tissue culture treated, Starlab, Hamburg, Germany) in densities of 1 × 10^3 CH1/PA-1, 2 × 10^3 SW480, 3 × 10^3 A549 and 7 × 10^3 IMR-90 cells per well (each in 100 µL). After a 24 h preincubation, drugs were added in serial dilution to give a final volume of 200 µL/well and exposed for 96 h. At the end of the exposure, the drug solutions were replaced by 100 µL RPMI 1640/MTT mixture (7:1 ratio). MTT (3-(4,5-dimethylthiazol-2-yl)-2,5-diphenyl-2H-tetrazolium bromide), (Acros Organics, Geel, Belgium) solution was prepared in phosphate-buffered saline (5 mg/mL) and mixed with RPMI1640 medium supplemented with 4 mM L-glutamine (both from Sigma-Aldrich) and 10% FBS. After 4 h incubation, the formazan crystals were solubilized in 150 µL of DMSO per well. Absorbance was measured at 550 nm (and at 690 nm as a reference) with a microplate reader (ELx808, BioTek, Winoosky, VT, USA) and Gen5^TM 3.08 software (BioTek). The 50% inhibitory concentrations (IC50) relative to untreated controls were interpolated from concentration-effect curves. At least three biologically and technically independent experiments were performed.

[2] = system: A549 (non-small cell lung carcinoma) cells; assay: MTT cytotoxicity assay, A549 monolayer; type: cell-based, human; conditions: exposure time 96 h, mean ± SD
Method: as §1, §2

[3] = system: HCT116, HT29 and MCF-7 cell lines; assay: ROS detection (DCFH-DA assay); type: cell-based, human; conditions: 2, 20, 100 and 200 µM, 2 h
Method: Reactive oxygen species (ROS) generation was measured by means of the DCFH-DA assay. […] On the following day, cells were washed with 200 µL Hanks’ balanced salt solution (HBSS, Sigma-Aldrich, containing 1% FBS) and stained with 100 µL of 25 µM DCFH-DA (2′,7′-dichlorofluorescein diacetate, Sigma-Aldrich) in HBSS (containing 1% FBS) for 45 min at 37 °C in the dark. After the incubation period, cells were washed with 200 µL HBSS (1% FBS) and loaded with compounds at concentrations of 2 µM, 20 µM, 100 µM and 200 µM in 200 µL phenol-red-free MEM (1% FBS) in triplicates. As positive controls, cells were treated with 200 µM and 400 µM tert-butylhydroperoxide (Sigma-Aldrich). Wells containing only phenol-red-free medium with 1% FBS were used as blanks, and non-drug treated, cell containing wells as reference values. Fluorescence (excitation: 485/20 nm, emission: 516/20 nm) was recorded in 10 min intervals with the Synergy HT reader (BioTek) over 2 h.

MCF-7 spheroids = assay: Spheroid growth, MCF-7; type: cell-based, human; conditions: 10 µM, 96 h treatment
Method: For growing multicellular tumor spheroids, 400 HCT116, 400 HT29 or 800 MCF-7 cells per well were plated into round-bottom ultra-low attachment 96-well plates (Corning, Glendale, AZ, USA) in the media described above and incubated at 37 °C for 96 h. Spheroids were treated with 10 µM of the two most cytotoxic compounds 3 and 4 for another 96 h. The diameters of the spheroids were measured with Cell^F software under a CKX41 Olympus microscope before treatment and in constant daily intervals over the 96 h treatment period. For statistical analysis the t-test with Welsh’s correction was implemented in GraphPad Prism software (Version 6.01).

HCT116 spheroids = assay: KI67 immunofluorescence staining of cryo-sectioned spheroids; type: cell-based, human; conditions: 72 h; for KI67+ cells: untreated control 38.1 ± 7.3 %
Method: Spheroids were grown and cryosectioned, as described in the section above. For immunofluorescence staining the samples were fixed with 4% PFA (in PBS) for 15 min. The slides were washed with PBS before permeabilization with 0.1% Triton-X (Sigma-Aldrich, Steinheim, Germany) for 10 min. After three times washing with PBS the samples were stained for 45 min with 10% goat serum (G9023, Sigma-Aldrich) und 5% BSA for avoiding non-specific antibody binding. After one washing step a primary antibody against Ki67 (#9129, Cell Signaling Technology) was applied and samples incubated overnight at 4 °C. On the next day, slides were washed with PBS and incubated with goat anti-rabbit Alexa Fluor 594 (#8889 Cell Signaling Technology) for 1 h at room temperature in the dark, followed by two washing steps with PBS. Slides were mounted with ProlonGold Antifade Reagent with DAPI (Invitrogen, Thermo Fisher) and analyzed with a confocal laser scanning microscope Zeiss LSM800 (Zeiss, Jena, Germany). Images were processed with Zen software (Zeiss). For fluorescence signal intensities data extraction ImageJ/Fiji1.46 was used. For quantification, the maximum signal intensity of the KI67^+ cells was evaluated relative to the untreated control. For statistical analysis the t-test with Welsh’s correction was implemented in GraphPad Prism software (Version 6.01).

[4] = Aqueous stability by UV/Vis in PBS; type: physicochemical; conditions: 24 h, 293 K, 1 vol% DMSO
Method: Stock solutions in DMSO of compounds 1–10 were utilized to determine the solubility in PBS by adding 1 vol% of the stock solution to a suitable amount of PBS. […] UV/Vis data were recorded on a Perkin Elmer Lambda 650 UV/Vis Spectrophotometer with a Peltier element for temperature control.
In order to examine the stability of the compounds in aqueous solution, UV/Vis measurements were performed every hour during 24 h at 293 K. Solutions of compounds 1–10 were prepared in PBS (10%) from a previously prepared DMSO stock solution of each compound. The total concentration of DMSO was 1 vol% for the final complex solutions of 1–10.

| Structure (SMILES) | IC50 [1] [µM] | IC50 [2] [µM] | intracellular ROS levels [3] | precipitation in PBS [4] | also measured |
| --- | --- | --- | --- | --- | --- |
| Cc1occc(=S)c1[O-].F[P-](F)(F)(F)(F)F.[W+4].c1cc[cH-]c1.c1cc[cH-]c1 [Compound 2, Bis(η^5-cyclopentadienyl)[2-methyl-3-(oxo-κO)-4-(1H)-pyran-4-thionato-κS]tungsten(IV) hexafluorophosphate] | 107 ± 30 | 36 ± 6 | – | – | – |
| F[P-](F)(F)(F)(F)F.O=c1c([O-])c(-c2ccc(Cl)cc2)oc2ccccc12.[W+4].c1cc[cH-]c1.c1cc[cH-]c1 [Compound 3, Bis(η^5-cyclopentadienyl)[2-(4-chlorophenyl)-3-(oxo-κO)-4(H)-chromen-4-oato-κO]tungsten(IV) hexafluorophosphate] | 38.2 ± 0.4 | 19 ± 3 | Pronounced elevation of ROS levels | slowly precipitate out of the solution over time | spheroid growth (MCF-7 spheroids): completely stop spheroid growth; reduction in number of KI67+ cells relative to untreated control (HCT116 spheroids; 20 µM): 2.4 fold; KI67+ cells (HCT116 spheroids; 20 µM): 15.8 ± 2.8% |
| F[P-](F)(F)(F)(F)F.[O-]c1c(-c2ccc(Cl)cc2)oc2ccccc2c1=S.[W+4].c1cc[cH-]c1.c1cc[cH-]c1 [Compound 4, Bis(η^5-cyclopentadienyl)[2-(4-chlorophenyl)-3-(oxo-κO)-4(H)-chromen-4-thionato-κS]tungsten(IV) hexafluorophosphate] | 11 ± 2 | 6.3 ± 0.5 | concentration-dependent anti-oxidative properties | slowly precipitate out of the solution over time | spheroid growth (MCF-7 spheroids): completely stop spheroid growth; reduction in number of KI67+ cells relative to untreated control (HCT116 spheroids; 15 µM): 2 fold; KI67+ cells (HCT116 spheroids; 15 µM): 19.1 ± 1.3% |
| F[P-](F)(F)(F)(F)F.O=C([O-])c1ccccn1.[W+4].c1cc[cH-]c1.c1cc[cH-]c1 [Compound 5, Bis(η^5-cyclopentadienyl)[2-(carboxylato-κO)-pyridine-κN]tungsten(IV) hexafluorophosphate] | – | > 200 | – | – | – |
| Cc1c([O-])c(=O)ccn1C.F[P-](F)(F)(F)(F)F.[W+4].c1cc[cH-]c1.c1cc[cH-]c1 [Compound 6, Bis(η^5-cyclopentadienyl)[1,2-dimethyl-3-(oxo-κO)-4-(1H)-pyridonato-κO]tungsten(IV) hexafluorophosphate] | – | 141 ± 36 | – | – | – |
| Cc1cc(=O)c([O-])co1.F[P-](F)(F)(F)(F)F.[W+4].c1cc[cH-]c1.c1cc[cH-]c1 [Compound 7, Bis(η^5-cyclopentadienyl)[2-methyl-5-(oxo-κO)-4-(1H)-pyran-4-ato-κO] tungsten(IV) hexafluorophosphate] | – | > 200 | – | slowly precipitate out of the solution over time | – |
| Cc1cc(=S)c([O-])co1.F[P-](F)(F)(F)(F)F.[W+4].c1cc[cH-]c1.c1cc[cH-]c1 [Compound 8, Bis(η^5-cyclopentadienyl)[2-methyl-5-(oxo-κO)-pyran-4-(1H)-thionato-κS] tungsten(IV) hexafluorophosphate] | – | > 200 | – | slowly precipitate out of the solution over time | – |
| CCc1occc(=O)c1[O-].F[P-](F)(F)(F)(F)F.[W+4].c1cc[cH-]c1.c1cc[cH-]c1 [Compound 9, Bis(η^5-cyclopentadienyl)[2-ethyl-3-(oxo-κO)-4-(1H)-pyran-4-ato-κO] tungsten(IV) hexafluorophosphate] | – | > 200 | Pronounced elevation of ROS levels | – | – |
| CCc1occc(=S)c1[O-].F[P-](F)(F)(F)(F)F.[W+4].c1cc[cH-]c1.c1cc[cH-]c1 [Compound 10, Bis(η^5-cyclopentadienyl)[2-ethyl-3-(oxo-κO)-4-(1H)-pyran-4-thionato-κS] tungsten(IV) hexafluorophosphate] | 114 ± 33 | 53 ± 8 | relevant ROS generation | slowly precipitate out of the solution over time | – |
